This is an account of results in BindingDB's records for doi:10.1111/cbdd.12579 (University of Karachi, 2015).

The target of one assay is Acetylcholinesterase (Electrophorus electricus, UniProt O42275). Description: AChE and BChE Inhibition Assay. Conditions: pH 8; 25 °C. As for the experimental part: (§1) A […] well plate was used for screening purpose. Each pyridopyrazine derivative was first dissolved in dimethyl sulfoxide to prepare the stock solutions. The synthetic compounds were then screened against electric eel acetylcholinesterase (eeAChE) and equine butyrylcholinesterase (BChE) at different concentrations (1 µM or 10 µM) of dimethyl sulfoxide as negative control in primarily screening. […] The reaction mixture which comprised of buffer solution (20 µL), synthetic compound (10 µL) and enzyme (0.5 and 3.4 U/mg, eeAChE or equine BChE) was primarily incubated for ten minutes at room temperature (25 C). Subsequently to the mixture, once the preincubation over, the acetylthiocholine iodide or butyrylthiocholine chloride (10 μL of 10 mM) was added and incubated it further for

Assay [1] deals with Carboxylic ester hydrolase (Equus caballus, UniProt Q9N1N9). Description: AChE and BChE Inhibition Assay. Conditions: pH 8; 25 °C. As for the experimental part: as §1
Sequence of Carboxylic ester hydrolase (Q9N1N9 whole entry): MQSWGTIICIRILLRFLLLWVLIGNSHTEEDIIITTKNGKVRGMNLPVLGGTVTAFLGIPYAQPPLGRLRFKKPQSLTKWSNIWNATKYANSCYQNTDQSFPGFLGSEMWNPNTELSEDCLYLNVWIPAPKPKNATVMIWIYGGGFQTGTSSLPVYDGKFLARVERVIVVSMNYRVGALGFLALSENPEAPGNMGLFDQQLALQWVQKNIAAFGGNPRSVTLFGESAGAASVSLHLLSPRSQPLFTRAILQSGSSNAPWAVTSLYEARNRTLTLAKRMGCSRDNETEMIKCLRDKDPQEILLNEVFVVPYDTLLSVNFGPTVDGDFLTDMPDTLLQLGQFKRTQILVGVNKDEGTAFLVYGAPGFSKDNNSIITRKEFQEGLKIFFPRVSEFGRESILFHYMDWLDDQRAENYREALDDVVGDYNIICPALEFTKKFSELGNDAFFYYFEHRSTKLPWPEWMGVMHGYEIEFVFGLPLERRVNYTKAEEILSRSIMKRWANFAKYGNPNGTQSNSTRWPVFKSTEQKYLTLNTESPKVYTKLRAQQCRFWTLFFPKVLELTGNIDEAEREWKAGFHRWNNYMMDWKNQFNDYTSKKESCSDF

Sequence of Acetylcholinesterase (O42275 whole entry): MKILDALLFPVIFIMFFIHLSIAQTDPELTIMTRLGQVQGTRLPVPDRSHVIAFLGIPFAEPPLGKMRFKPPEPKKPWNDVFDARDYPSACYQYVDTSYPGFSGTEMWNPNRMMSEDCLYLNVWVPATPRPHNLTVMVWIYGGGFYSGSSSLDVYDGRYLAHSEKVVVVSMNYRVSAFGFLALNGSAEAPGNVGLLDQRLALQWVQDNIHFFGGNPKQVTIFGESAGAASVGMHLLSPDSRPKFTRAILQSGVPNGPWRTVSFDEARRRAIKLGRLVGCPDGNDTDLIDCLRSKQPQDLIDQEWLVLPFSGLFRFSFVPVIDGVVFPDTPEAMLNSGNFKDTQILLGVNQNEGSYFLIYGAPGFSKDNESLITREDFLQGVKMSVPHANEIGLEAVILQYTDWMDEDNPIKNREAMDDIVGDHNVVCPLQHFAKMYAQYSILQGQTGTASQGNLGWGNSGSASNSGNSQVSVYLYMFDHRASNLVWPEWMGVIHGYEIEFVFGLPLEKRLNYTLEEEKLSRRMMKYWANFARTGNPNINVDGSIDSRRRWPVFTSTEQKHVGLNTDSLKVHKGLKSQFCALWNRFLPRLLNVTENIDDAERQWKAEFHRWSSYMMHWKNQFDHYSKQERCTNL

With `Clc1ccc(-c2cnc3cccnc3n2)cc1` [3-(4′-Chlorophenyl)pyrido[2,3-b]pyrazine (6g)], the figures for the IC50 (on Acetylcholinesterase; in assay [1]) were 2.59 µM and 2.63 µM, respectively. On the same counts, the results for `O=[N+]([O-])c1ccccc1-c1cnc2cccnc2n1` [3-(2′-Nitrophenyl)pyrido[2,3-b]pyrazine (6o)] are 3 µM and 22.3 µM. On the same counts, the results for `Brc1cccc(-c2cnc3cccnc3n2)c1` [3-(3′-Bromophenyl)pyrido[2,3-b]pyrazine (6j)] are 3.12 µM and 11.5 µM. In the case of `c1ccc(-c2cnc3cccnc3n2)cc1` [3-Phenylpyrido[2,3-b]pyrazine (6a)], the figures for the IC50 (at Acetylcholinesterase; in assay [1]) were 9.65 µM and 35.4 µM, respectively. Regarding `Fc1ccc(-c2cnc3cccnc3n2)cc1` [3-(4′-Fluorophenyl)pyrido[2,3-b]pyrazine (6e)], the IC50 against Acetylcholinesterase is 2.45 µM; in assay [1], 11.2 µM.

Compound `CN(C)C(=O)Oc1cccc([N+](C)(C)C)c1` [m-Trimethylammoniumphenyldimethylcarbamate] displayed an IC50 in assay [1] of 49.6 µM. Turning to `Cc1cccc(-c2cnc3cccnc3n2)c1` [3-(3′-Methylphenyl)pyrido[2,3-b]pyrazine (6c)], the IC50 at Acetylcholinesterase amounted to 5.88 µM; in assay [1], 0.583 µM. On the same counts, the results for `c1cnc2nc(-c3ccc(N4CCCCC4)cc3)cnc2c1` [3-(4′-(Piperidin-1-yl)phenyl)pyrido[2,3-b]pyrazine (6p)] are 4.75 µM and 3.91 µM. On the same counts, the results for `Cc1ccc(-c2cnc3cccnc3n2)cc1` [3-(4′-Methylphenyl)pyrido[2,3-b]pyrazine (6b)] are 3.06 µM and 6.44 µM. On the same counts, the results for `Clc1cccc(-c2cnc3cccnc3n2)c1` [3-(3′-Chlorophenyl)pyrido[2,3-b]pyrazine (6h)] are 1.26 µM and 12.1 µM.

As to `Brc1ccccc1-c1cnc2cccnc2n1` [3-(2′-Bromophenyl)pyrido[2,3-b]pyrazine (6k)], the IC50 against Acetylcholinesterase was 4.03 µM; in assay [1], 7.45 µM. In the case of `Clc1ccccc1-c1cnc2cccnc2n1` [3-(2′-Chlorophenyl)pyrido[2,3-b]pyrazine (6i)], the IC50 turned out to be 2.52 µM at Acetylcholinesterase and 9.67 µM in assay [1]. For the compound `Fc1cccc(-c2cnc3cccnc3n2)c1` [3-(3′-Fluorophenyl)pyrido[2,3-b]pyrazine (6f)], the IC50 at Acetylcholinesterase came to 0.899 µM; in assay [1] it was 79.8 µM. For the compound `c1cnc2nc3c(nc2c1)CCCC3` [6,7,8,9-tetrahydropyrido[2,3-b]quinoxaline (6q)], the results for the half-maximal inhibitory concentration (IC50) (against Acetylcholinesterase; in assay [1]) were 5.78 µM and 10.9 µM, respectively. Consider `O=[N+]([O-])c1cccc(-c2cnc3cccnc3n2)c1` [3-(3′-Nitrophenyl)pyrido[2,3-b]pyrazine (6n)], for which the half-maximal inhibitory concentration (IC50) against Acetylcholinesterase is 0.466 µM; in assay [1], 1.89 µM. Regarding `Ic1ccc(-c2cnc3cccnc3n2)cc1` [3-(4′-Iodophenyl)pyrido[2,3-b]pyrazine (6l)], the IC50 at Acetylcholinesterase was determined as 4.05 µM; in assay [1], 31.2 µM.

`Cc1ccccc1-c1cnc2cccnc2n1` [3-(2′-Methylphenyl)pyrido[2,3-b]pyrazine (6d)]: the results for the IC50 (against Acetylcholinesterase; in assay [1]) were 5.39 µM and 21.2 µM, respectively. On to `O=[N+]([O-])c1ccc(-c2cnc3cccnc3n2)cc1` [3-(4′-Nitrophenyl)pyrido[2,3-b]pyrazine (6m)], for which the IC50 came to 1.97 µM on Acetylcholinesterase and 20.8 µM in assay [1].

For orientation: IC50 means the concentration at which inhibition is half-maximal. A higher IC50 goes with lower potency.
